From ChEMBL document CHEMBL1201862, “PubChem BioAssay data set” (2004)
Calls of active or inactive are those of the source.

What was measured:
Protein Wnt-3a = Protein Wnt-3a (Mus musculus, UniProt P27467); test: Wnt3a-driven reporter signaling inhibition, dose response, selectivity assay for Gli-SUFU antagonist project, Wnt-LIGHT cells, luminescence (AID 651570); type: functional; conditions: read-out: IC50_Mean;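 also: Wnt-LIGHT reporter cells stimulated with conditioned medium from Wnt3a-producing cells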
[1] = biological target: COUP transcription factor 2 (Homo sapiens, UniProt P24468); test: Luminescence-based cell-based high throughput dose response assay to identify inhibitors of COUP-TFII (NR2F2).; type: functional;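 also: HEK293 cells transiently cotransfected with COUP-TFII expression vector and reporter; luciferase reporter luminescence driven by COUP-TFII from the pX2-168 reporter plasmid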
[2] = human group III sPLA2 inhibitors, dose response, biochemical, QFRET, IC50 (AID 743457);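 also: green fluorescence rise as the enzyme cleaves BODIPY PC-A2 in liposomes; potency for inhibition of the enzyme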
[3] = biological target: T1, Short transient receptor potential channel 4 (Mus musculus, UniProt Q9QUQ5); test: mouse TRPC4 channel activators, dose response, cell-based, HEK293 TRPC4/mu-opioid, Fluo-4 calcium (AID 434937); type: functional
T1 sequence (Q9QUQ5 whole entry): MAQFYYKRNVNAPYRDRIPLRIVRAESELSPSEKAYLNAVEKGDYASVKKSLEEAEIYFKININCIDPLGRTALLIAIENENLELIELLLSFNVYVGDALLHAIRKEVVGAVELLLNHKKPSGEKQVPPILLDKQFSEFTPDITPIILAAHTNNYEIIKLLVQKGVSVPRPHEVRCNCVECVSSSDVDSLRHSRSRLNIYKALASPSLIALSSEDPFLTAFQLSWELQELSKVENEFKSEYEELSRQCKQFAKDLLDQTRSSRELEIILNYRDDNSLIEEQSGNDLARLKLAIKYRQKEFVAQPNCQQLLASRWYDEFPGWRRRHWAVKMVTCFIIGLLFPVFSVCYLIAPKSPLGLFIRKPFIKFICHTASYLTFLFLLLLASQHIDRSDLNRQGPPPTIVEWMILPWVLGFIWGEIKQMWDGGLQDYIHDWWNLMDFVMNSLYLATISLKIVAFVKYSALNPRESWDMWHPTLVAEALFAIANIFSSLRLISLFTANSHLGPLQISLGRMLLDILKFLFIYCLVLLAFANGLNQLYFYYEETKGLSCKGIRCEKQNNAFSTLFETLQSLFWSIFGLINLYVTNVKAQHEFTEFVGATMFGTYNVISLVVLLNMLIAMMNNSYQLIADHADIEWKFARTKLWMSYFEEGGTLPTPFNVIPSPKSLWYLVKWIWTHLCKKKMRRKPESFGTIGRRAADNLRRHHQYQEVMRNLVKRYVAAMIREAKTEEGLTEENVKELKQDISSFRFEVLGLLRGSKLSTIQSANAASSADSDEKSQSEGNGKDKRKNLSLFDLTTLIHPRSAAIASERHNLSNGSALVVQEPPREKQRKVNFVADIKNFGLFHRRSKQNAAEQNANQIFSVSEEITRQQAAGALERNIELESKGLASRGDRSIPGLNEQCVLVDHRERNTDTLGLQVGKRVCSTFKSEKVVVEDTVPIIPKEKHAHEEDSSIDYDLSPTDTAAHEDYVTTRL

H4 = test: Luminescence Cell-Based Dose Response HTS to Identify Activators of 5'UTR Stem-Loop Driven Prion Protein mRNA Translation in H4 Neuroglioblastoma Cells. [Related pubchem assays: 1829 (Project Summary), 1814 (Primary HTS)]; type: functional; conditions: Homo sapiens
[4] = Luminescence Cell-Based Dose Confirmation to Identify Activators of 5'UTR Stem-Loop Driven Alpha-Synuclein mRNA Translation in H4 Neuroglioblastoma Cells. [Related pubchem assays: 1829 (Project Summary), 1814 (Primary HTS)]; type: functional
[5] = Luminescence Cell-Based Dose Response to Identify Activators of 5'UTR Stem-Loop Driven Prion Protein mRNA Translation in H4-C Neuroglioblastoma Cells. [Related pubchem assays: 1829 (Project Summary), 1814 (Primary HTS)]; type: functional
[6] = biological target: T2, Oxysterols receptor LXR-beta (Homo sapiens, UniProt P55055); type: functional, cell-based;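 also: agonist activity at LXR measured by a cell-based luminescence readout across a dose range, run as a counterscreen for daf-12 agonists; HEK293 cells with Gal4-LXR fusion and GAL4-driven luciferase reporter; potency for activation of Gal4-LXR reporter so compounds are agonists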
T2 sequence (P55055 whole entry): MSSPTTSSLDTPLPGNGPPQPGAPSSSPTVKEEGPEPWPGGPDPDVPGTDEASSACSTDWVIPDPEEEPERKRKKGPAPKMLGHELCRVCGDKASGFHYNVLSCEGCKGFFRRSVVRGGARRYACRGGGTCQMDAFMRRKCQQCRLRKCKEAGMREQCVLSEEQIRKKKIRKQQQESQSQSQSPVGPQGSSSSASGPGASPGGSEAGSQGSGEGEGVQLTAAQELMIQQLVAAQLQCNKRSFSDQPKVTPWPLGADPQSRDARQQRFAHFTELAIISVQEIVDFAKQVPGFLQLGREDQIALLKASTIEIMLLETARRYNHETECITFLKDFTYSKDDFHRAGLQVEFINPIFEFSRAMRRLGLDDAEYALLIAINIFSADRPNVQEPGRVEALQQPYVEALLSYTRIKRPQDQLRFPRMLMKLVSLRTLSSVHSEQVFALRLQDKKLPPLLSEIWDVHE

[7] = Luminescence Cell-Based Dose Response HTS to Identify Activators of Luciferase Translation or Activity in H4 […] Cells. [Related pubchem assays: 1829 (Project Summary), 1814 (Primary HTS)]; type: functional
[8] = Luminescence Cell-Based Dose Response to Identify Activators of Luciferase Translation or Activity in H4-C Neuroglioblastoma Cells. [Related pubchem assays: 1829 (Project Summary), 1814 (Primary HTS)]; type: functional
[9] = biological target: FAD-linked sulfhydryl oxidase ALR (Homo sapiens, UniProt P55789); test: inhibitors of human ALR sulfhydryl oxidase, dose response, biochemical, H2O2 detection, luminescence, cherry-pick (AID 493248)
[10] = NIH-3T3 fibroblast cytotoxicity, dose response, cytotoxicity control, cell-based, fluorescence, Alamar Blue, secondary assay (AID 2327); type: functional;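 also: NIH-3T3 mouse fibroblasts cultured with fluconazole at 8 µg/mL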
[11] = ADAM10 inhibitors, peptide cleavage, dose response, biochemical, QFRET (AID 743254);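 also: ADAM10 enzyme with the DM2 quenched FRET peptide as substrate; EDANS fluorescence gain as the protease cuts the substrate; inhibitor potency against ADAM10 proteolytic activity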
[12] = C. albicans growth with fluconazole, confirmation, fluorescence, retest (AID 2467); type: functional, cell-based
Streptococcus = test: Group A Streptococcus viability loss, dose response, counter-screen for streptokinase expression inhibitor project, luminescence, BacTiterGlo (AID 1915); type: functional, organism-based;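 also: potency for reduction of bacterial viability or growth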
[13] = system: Streptococcus sp. 'group A'; test: growth inhibition of control SK(-) GAS strain, dose response, counter-screen for streptokinase expression inhibitor project, luminescence, kanamycin, BacTiterGlo, confirmation (AID 1900); type: functional, organism-based
[14] = biological target: Disintegrin and metalloproteinase domain-containing protein 17 (Homo sapiens, UniProt P78536); test: ADAM17 protease inhibitors, dose response, counter-screen for ADAM10 exosite inhibitor project, biochemical, quenched FRET substrate (AID 743253)
Estrogen receptor beta = Estrogen receptor beta (Homo sapiens, UniProt Q92731);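 also: recombinant ER-beta bound to coactivator SRC1 peptide in presence of estradiol agonist; inhibitors block coactivator peptide binding and lower the FRET signal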
Kallikrein-7 = Kallikrein-7 (Homo sapiens, UniProt P49862); test: Fluorescence Intensity-based biochemical primary high throughput dose response assay to identify activators of kallikrein-7 (K7) zymogen.
[15] = biological target: Potassium channel subfamily K member 9 (Homo sapiens, UniProt Q9NPC2); test: TASK3 (KCNK9) channel inhibitors, thallium flux, SAR follow-up, selectivity assay for TASK1 inhibitor project, cell-based, FluxOR thallium flux, concentration-response (AID 652211); type: functional;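 also: potency is for inhibitors of the channel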
[16] = biological target: Potassium channel subfamily K member 3 (Homo sapiens, UniProt O14649); test: TASK1 (KCNK3) potassium channel inhibitors, SAR follow-up, CHO cells, FluxOR thallium flux (AID 652212); type: functional
[17] = biological target: Voltage-gated inwardly rectifying potassium channel KCNH2 (Homo sapiens, UniProt Q12809); test: hERG channel inhibition in selectivity testing, SAR follow-up, selectivity assay for TASK1 inhibitor project, FluxOR thallium flux, concentration-response, CHO cells (AID 652194); type: functional, cell-based
[18] = HEK293 Cytotoxicity Assay Measured in Cell-Based System Using Plate Reader - 7071-01_Inhibitor_Dose_CherryPick_Activity_Set2.; type: functional
Cryptococcus neoformans = test: PubChem AID 686997; type: functional, organism-based
HeLa = test: HeLa cell cytotoxicity, dose response, cytotoxicity control, ATP luminescence, cherry-pick samples (AID 687004); type: functional, cell-based; conditions: Homo sapiens
HEK293 = test: HEK293T cell cytotoxicity, dose response, cytotoxicity control, ATP luminescence, cherry-pick samples (AID 687005); type: functional, cell-based; conditions: Homo sapiens;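 also: cells exposed to compound for 48 hours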
[19] = biological target: T3, High affinity choline transporter 1 (Homo sapiens, UniProt Q9GZV3); test: CHT choline uptake inhibitors, dose response, cell-based, HEK-293 hCHT, [3H]-choline uptake (AID 652177); type: functional
T3 sequence (Q9GZV3 whole entry): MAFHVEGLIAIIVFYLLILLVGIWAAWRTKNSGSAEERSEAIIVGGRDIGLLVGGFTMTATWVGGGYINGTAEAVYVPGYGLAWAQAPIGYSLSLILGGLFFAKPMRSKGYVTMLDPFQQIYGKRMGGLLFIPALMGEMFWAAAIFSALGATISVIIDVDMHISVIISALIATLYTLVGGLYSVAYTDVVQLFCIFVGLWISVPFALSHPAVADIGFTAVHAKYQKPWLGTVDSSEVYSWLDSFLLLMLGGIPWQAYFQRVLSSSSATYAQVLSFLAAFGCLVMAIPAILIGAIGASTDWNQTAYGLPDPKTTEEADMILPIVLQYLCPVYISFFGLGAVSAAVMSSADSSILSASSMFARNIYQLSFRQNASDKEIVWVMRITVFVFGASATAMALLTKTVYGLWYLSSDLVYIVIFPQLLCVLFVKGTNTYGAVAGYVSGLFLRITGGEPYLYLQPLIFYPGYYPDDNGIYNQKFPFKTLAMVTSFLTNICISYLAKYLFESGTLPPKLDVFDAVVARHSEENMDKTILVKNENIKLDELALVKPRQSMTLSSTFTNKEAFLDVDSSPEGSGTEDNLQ

[20] = cytotoxicity in HEK293 cells, dose response, cytotoxicity control, cell-based, cherry-picked samples (AID 1053185); type: functional
[21] = cytotoxicity in A549 cells, dose response, cytotoxicity control, cell-based, cherry-picked samples (AID 1053184); type: functional
[22] = cytotoxicity in HepG2 cells, dose response, cytotoxicity control, cell-based, cherry-picked samples (AID 1053183); type: functional
[23] = HeLa cell cytotoxicity, dose response, cytotoxicity control, 24 h, plate reader, dry powder (AID 686928); type: functional, cell-based
[24] = biological target: Protein disulfide-isomerase (Homo sapiens, UniProt P07237); test: PDI inhibitors, insulin turbidity readout, confirmation, biochemical, dry powder samples, set 2 (AID 652146)
[25] = HEK293 cell cytotoxicity, dose response, cytotoxicity control, HEK293T, ATP luminescence, dry powder (AID 652119); type: functional, cell-based
[26] = A Cell-Based Confirmatory Screen for Compounds that Inhibit VEEV, TC-83 (8).; type: functional
[27] = Late stage assay provider results from the probe development effort to identify inhibitors of the Plasmodium falciparum M18 Aspartyl Aminopeptidase (M18AAP): radiolabel-based cell-based dose response assay to identify compounds that inhibit P. falciparum growth in RBCs, Set 2..; type: functional

Kallikrein-7, sequence (P49862 whole entry): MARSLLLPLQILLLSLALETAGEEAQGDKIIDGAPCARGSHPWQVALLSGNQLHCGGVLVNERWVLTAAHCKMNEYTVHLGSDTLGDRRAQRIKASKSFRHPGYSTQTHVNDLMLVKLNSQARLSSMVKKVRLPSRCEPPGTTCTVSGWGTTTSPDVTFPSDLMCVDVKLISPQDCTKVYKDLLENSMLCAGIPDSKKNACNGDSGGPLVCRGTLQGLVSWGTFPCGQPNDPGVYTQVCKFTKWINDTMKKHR
Voltage-gated inwardly rectifying potassium channel KCNH2, sequence (Q12809 whole entry): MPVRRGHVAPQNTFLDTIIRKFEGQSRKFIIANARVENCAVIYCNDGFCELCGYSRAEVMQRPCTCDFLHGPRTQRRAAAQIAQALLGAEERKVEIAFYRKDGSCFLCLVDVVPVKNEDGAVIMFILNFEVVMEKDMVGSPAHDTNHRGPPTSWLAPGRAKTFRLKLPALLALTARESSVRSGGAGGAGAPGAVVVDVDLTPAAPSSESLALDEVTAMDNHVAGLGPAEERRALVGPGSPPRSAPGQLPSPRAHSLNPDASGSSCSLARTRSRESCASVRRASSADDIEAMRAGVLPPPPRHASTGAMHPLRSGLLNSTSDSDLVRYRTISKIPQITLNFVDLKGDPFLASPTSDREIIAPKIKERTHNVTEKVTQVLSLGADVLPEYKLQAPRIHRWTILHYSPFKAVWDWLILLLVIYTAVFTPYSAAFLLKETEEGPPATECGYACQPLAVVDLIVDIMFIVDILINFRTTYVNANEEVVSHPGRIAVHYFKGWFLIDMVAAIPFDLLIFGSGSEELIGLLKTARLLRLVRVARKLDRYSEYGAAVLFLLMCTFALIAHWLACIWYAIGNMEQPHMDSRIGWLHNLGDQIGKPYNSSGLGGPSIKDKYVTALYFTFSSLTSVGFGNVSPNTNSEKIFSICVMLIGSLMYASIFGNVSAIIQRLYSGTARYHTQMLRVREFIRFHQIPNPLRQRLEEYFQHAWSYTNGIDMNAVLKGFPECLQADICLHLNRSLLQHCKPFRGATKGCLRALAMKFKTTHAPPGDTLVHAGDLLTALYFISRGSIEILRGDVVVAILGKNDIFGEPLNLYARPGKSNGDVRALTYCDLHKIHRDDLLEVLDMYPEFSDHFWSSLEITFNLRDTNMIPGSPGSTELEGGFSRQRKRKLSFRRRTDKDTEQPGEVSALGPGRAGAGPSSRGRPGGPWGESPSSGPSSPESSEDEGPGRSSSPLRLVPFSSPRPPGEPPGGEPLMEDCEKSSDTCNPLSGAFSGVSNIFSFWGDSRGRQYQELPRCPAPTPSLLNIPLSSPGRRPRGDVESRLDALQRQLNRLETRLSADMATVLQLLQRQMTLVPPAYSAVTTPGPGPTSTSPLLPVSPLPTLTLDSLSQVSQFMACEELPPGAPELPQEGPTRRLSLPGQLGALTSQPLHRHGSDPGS
Protein disulfide-isomerase, sequence (P07237 whole entry): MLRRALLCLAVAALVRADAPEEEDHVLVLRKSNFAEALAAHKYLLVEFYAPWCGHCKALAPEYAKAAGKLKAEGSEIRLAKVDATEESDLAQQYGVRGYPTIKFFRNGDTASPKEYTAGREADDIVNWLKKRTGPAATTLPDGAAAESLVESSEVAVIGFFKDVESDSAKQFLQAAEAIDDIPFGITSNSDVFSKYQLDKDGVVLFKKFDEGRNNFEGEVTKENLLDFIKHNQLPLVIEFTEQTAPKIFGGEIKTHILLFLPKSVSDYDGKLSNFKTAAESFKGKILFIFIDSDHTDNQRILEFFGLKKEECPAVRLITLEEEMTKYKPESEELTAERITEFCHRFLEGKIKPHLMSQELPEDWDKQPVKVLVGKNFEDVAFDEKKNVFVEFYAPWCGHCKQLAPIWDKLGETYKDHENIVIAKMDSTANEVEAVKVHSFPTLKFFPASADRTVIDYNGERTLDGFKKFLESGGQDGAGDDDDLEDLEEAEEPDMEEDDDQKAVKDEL
Disintegrin and metalloproteinase domain-containing protein 17, sequence (P78536 whole entry, the tested form may be a part): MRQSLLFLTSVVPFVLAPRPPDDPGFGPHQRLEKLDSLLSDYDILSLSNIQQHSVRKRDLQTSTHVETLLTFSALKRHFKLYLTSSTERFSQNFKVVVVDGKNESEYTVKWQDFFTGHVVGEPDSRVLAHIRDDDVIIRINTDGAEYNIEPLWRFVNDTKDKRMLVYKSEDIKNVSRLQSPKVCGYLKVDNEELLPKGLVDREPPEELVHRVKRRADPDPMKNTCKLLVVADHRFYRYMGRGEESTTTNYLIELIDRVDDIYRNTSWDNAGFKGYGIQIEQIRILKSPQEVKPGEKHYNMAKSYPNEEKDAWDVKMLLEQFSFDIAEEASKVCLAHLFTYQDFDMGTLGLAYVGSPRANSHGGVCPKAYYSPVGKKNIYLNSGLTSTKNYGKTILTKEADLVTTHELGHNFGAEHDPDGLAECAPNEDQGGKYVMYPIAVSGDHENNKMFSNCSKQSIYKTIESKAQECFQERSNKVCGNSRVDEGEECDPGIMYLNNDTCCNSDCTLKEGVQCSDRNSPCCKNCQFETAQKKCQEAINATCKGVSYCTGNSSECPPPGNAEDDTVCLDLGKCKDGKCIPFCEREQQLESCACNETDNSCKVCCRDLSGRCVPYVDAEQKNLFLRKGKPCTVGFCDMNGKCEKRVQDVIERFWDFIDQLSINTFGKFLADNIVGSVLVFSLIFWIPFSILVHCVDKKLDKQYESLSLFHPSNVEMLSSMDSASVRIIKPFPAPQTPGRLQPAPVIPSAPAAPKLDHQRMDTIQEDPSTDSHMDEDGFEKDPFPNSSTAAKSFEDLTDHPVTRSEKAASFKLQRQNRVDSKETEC
Protein Wnt-3a, sequence (P27467 whole entry): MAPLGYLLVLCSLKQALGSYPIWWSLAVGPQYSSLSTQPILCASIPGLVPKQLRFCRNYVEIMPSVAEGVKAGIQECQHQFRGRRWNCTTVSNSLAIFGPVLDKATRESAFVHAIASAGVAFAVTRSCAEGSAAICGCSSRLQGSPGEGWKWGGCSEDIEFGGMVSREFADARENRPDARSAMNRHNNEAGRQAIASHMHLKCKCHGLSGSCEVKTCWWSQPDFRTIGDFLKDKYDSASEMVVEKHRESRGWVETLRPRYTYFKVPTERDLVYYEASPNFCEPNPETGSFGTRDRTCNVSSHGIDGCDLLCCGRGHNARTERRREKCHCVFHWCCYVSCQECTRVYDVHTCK
COUP transcription factor 2, sequence (P24468 whole entry): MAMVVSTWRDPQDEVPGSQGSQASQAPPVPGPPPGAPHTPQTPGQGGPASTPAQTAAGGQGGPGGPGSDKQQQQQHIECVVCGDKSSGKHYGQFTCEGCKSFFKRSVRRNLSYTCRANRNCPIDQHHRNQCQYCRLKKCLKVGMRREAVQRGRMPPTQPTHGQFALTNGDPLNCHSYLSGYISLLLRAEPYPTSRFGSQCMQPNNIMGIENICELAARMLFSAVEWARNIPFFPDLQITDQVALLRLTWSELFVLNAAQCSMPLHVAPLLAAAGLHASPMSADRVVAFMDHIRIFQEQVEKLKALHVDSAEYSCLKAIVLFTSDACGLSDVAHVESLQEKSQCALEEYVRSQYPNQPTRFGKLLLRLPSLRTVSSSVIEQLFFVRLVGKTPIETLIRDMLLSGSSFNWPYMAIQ
Estrogen receptor beta, sequence (Q92731 whole entry): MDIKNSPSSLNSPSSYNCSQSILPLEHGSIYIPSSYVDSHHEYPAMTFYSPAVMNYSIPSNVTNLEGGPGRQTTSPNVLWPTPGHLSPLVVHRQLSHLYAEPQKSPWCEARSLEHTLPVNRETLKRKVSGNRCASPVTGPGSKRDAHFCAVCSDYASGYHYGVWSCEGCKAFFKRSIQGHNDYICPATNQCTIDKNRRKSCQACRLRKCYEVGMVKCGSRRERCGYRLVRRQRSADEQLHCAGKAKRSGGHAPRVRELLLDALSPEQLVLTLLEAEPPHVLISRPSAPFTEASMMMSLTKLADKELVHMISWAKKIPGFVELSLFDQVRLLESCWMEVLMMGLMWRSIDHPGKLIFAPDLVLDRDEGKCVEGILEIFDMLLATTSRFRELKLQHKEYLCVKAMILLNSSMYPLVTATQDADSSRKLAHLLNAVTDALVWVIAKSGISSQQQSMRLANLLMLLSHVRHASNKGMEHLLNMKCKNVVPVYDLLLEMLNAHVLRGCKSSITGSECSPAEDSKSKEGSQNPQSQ
Potassium channel subfamily K member 3, sequence (O14649 whole entry): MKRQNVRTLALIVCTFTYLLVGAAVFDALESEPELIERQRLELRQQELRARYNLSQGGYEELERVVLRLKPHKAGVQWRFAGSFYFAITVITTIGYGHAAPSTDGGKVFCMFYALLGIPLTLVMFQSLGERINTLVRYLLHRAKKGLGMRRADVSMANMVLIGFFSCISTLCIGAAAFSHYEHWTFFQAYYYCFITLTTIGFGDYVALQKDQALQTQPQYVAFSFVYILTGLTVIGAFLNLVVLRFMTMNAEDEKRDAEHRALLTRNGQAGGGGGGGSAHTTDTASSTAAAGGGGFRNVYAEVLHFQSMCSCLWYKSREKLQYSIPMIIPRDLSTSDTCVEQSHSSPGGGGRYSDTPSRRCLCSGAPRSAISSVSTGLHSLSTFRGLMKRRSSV
FAD-linked sulfhydryl oxidase ALR, sequence (P55789 whole entry): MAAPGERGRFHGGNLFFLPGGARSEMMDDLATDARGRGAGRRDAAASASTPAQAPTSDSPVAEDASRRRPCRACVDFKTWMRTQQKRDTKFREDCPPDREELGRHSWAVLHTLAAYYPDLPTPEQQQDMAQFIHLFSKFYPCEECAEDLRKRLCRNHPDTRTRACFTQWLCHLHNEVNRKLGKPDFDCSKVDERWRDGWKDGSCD

## CCC(C)NC(=O)CCC(=O)OC1O[C@H]2OC3(C)CC[C@H]4[C@H](C)CCC(C1C)C24OO3 (some centres not stated)
Protein Wnt-3a
  IC50: 0.238 µM (active)
[1]
  IC50: 468 µM (inactive)

## COc1ccc(C2C3=C(CC(C)(C)CC3=O)N(C)C3=C2C(=O)CC(C)(C)C3)cc1
cells
  AC50: 2.07 µM (active)

## Cc1ccc(C(=O)NC(=S)NNC(=O)c2ccccc2)cc1
[2]
  IC50: 51.6 µM (inactive)
[3]
  EC50: 1.33 µM (active)

## Cc1nc(N)sc1N=Nc1ccc(Br)cc1
H4
  EC50: > 120 µM (not active)
[4]
  EC50: 0.28 µM (active)
[5]
  EC50: 0.285 µM (active)
[6]
  EC50: > 67.5 µM (inactive)
[7]
  EC50: < 0.1 µM (active)
[8]
  EC50: 0.303 µM (active)
[9]
  AC50: 0.753 µM (active)

## Cc1cc(NC(=O)c2c(F)cccc2Cl)n(-c2nc3ccccc3[nH]2)n1
[10]
  EC50: > 160 µM (inconclusive)
[11]
  IC50: > 7.72 µM (active)
[12]
  EC50: > 38 µM (not active)
Streptococcus
  EC50: 7.12 µM (active)
[13]
  EC50: 6.4 µM (active)
[14]
  IC50: > 69.5 µM (inactive)
Estrogen receptor beta
  IC50: > 50 µM (not active)

## CNc1ccc(-c2cccc(CO)c2)cn1
Kallikrein-7
  EC50: > 7.72 µM (active)

## CCCC(=O)C1CCN(c2ncnc3c2CN(C(=O)c2ccc(-c4ccccc4)cc2)CC3)CC1
[15]
  IC50: 0.14 µM (active)
[16]
  IC50: 0.021 µM (active)
[17]
  IC50: 7.68 µM (active)

## COC(=O)C1=C(C)N(Cc2ccc(Br)cc2)C(=S)NC1c1ccc(OC)cc1 (configuration not stated)
[18]
  AC50: 22.2 µM (active)
Cryptococcus neoformans
  AC50: > 60 µM (inactive)
Cryptococcus neoformans; Cryptococcus neoformans
  AC50: 36.4 µM (active)
HeLa
  AC50: > 47 µM (inactive)
HEK293
  AC50: 22.2 µM (active)

## CCc1cc(CNC(=O)c2ccc(OC)c(OCCN3CCCCC3)c2)on1
[19]
  IC50: 5.91 µM (active)

## Fc1cccc(CN2C[C@@H]3N[C@H](C2)[C@H]3c2ccc(/C=C/c3ccccc3)cc2)c1
[20]
  AC50: 13.2 µM (active)
[21]
  AC50: 13.7 µM (active)
[22]
  AC50: 18.8 µM (active)

## O=C(Nc1nnc(-c2ccc3c(c2)OCCO3)o1)C1CCCCCC1
[23]
  AC50: > 200 µM (inactive)

## CCN(C)C(=O)C1(CCOc2ccccc2)CCN(Cc2ccc(O)c(Cl)c2)CC1
[24]
  AC50: 3 µM (active)
[25]
  AC50: > 52 µM (inactive)

## O=c1nc(Nc2cccc(OCc3ccccc3)c2)sc2ncccc12
[26]
  IC50: 1.64 µM (active)

## CN(CCc1ccc(O)c(O)c1)c1ccnc2ccccc12
[27]
  IC50: 4.8 µM (active)
